Reference: US10604514B2, “6-(5-membered heteroaryl)isoquinolin-3-yl carboxamides and preparation and use thereof” (Samumed, LLC, priority 2017, dated 2020)
Like-named read-outs stand apart in the source and are kept apart here.

Columns and labels:
[1] = system: Wnt activity (Sp5-Luc reporter in SW480 colon carcinoma cells); assay: Wnt activity screening assay (Sp5-Luc reporter gene assay); assay type: cell-based, human; details: Homo sapiens; for inhibition at 10 µM: SW480, read-out: percent inhibition at 10 μM; for EC50: Sp5-Luc reporter, SW480 cells, 36 to 48 hours
Summary of the method: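 Compounds at 10 points (1:3 steps, top 10 μM, 0.1% DMSO final) were incubated 36 to 48 h at 37° C with stable Sp5-Luc SW480 reporter cells in 1% FBS medium. Luciferase luminescence was then read and expressed relative to DMSO-only cells. Four-parameter variable-slope fitting yielded EC50 values.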

GSK3β kinase = GSK3β kinase (Homo sapiens (Human), UniProt P49841); assay: GSK3β kinase assay (Ser/Thr 09 peptide Z-lyte, FRET); assay type: biochemical; details: method text calls the value IC50;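 further: Coumarin/fluorescein emission ratio converted to percent phosphorylation against unphosphorylated (0%) and phosphorylated (100%) controls, 1 h compound incubation at room temperature, 11-point threefold dilutions from 10 µM, run in duplicate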
[2] = system: Tau phosphorylation at Ser396 (pSer396), SH-SY5Y cells; assay: Tau phosphorylation at Ser396 (pSer396) in SH-SY5Y cells, ELISA/western blot; assay type: cell-based, human; details: Homo sapiens; SH-SY5Y cells, overnight (16-18 h); read-out: pSer396 Tau EC50;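 further: cell lysates probed for reduced Tau pSer396 via ELISA (colorimetric) or western blot (chemiluminescence), both with one shared pSer396 antibody, EC50 for lowering phosphorylation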
[3] = system: SW480 colon carcinoma cells; assay: Cell viability assay (CellTiter-Glo) in SW480 cells; assay type: cell-based, human; details: Homo sapiens; for EC50: 96 h, cell viability, SW480 cells, four days, CellTiter-Glo; for inhibition at 10 µM: SW480, read-out: percent inhibition at 10 μM;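 on all read-outs here: SW480 cells stably carrying an Sp5-luciferase TCF/LEF reporter, luminescent ATP signal as viability measure, DMSO-treated cells as control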
[4] = system: LL29 cells (primary human fibroblasts derived from IPF patients), α-smooth muscle actin; assay: Inhibition of fibrotic process: αSMA in TGF-β1-treated primary human fibroblasts from IPF patients (LL29 cells); assay type: cell-based; details: Homo sapiens, Fibroblast; for EC50: 96 h, % αSMA-positive LL29 cells, TGF-β1 20 ng/mL, 4 days
Summary of the method: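 Read-out is the percentage of αSMA-positive cells by high-content imaging, excluding SYTOX green-positive dead/apoptotic cells, normalized to TGF-β1-only wells on the same plate. LL29 cells were exposed for 4 days at 37 °C to 20 ng/mL TGF-β1 plus 11-point, 2-fold compound dilutions in 0.1% DMSO.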

IL-6 = IL-6 inhibition in LPS-stimulated human peripheral blood mononuclear cells (HTRF); assay type: cell-based; details: Homo sapiens, PBMC; for EC50: IL-6, LPS-stimulated huPBMCs, HTRF
Summary of the method: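 EC50 from a 4-parameter fit of DMSO-normalized HTRF (665/620 nm) IL-6 signal, duplicates. Compound was added to fresh human PBMCs in 1% FBS RPMI for 2 h (top 10 μM, 3-fold, 0.25% DMSO) before 22 h stimulation with LPS at 50 ng/mL, 37 °C.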

DYRK1A kinase = DYRK1A kinase (Homo sapiens (Human), UniProt Q13627); assay: DYRK1A kinase assay (Ser/Thr 18 peptide Z-lyte, FRET)
[5] = DYRK1A kinase, method text calls the value IC50

GSK3β kinase, sequence (P49841 whole entry): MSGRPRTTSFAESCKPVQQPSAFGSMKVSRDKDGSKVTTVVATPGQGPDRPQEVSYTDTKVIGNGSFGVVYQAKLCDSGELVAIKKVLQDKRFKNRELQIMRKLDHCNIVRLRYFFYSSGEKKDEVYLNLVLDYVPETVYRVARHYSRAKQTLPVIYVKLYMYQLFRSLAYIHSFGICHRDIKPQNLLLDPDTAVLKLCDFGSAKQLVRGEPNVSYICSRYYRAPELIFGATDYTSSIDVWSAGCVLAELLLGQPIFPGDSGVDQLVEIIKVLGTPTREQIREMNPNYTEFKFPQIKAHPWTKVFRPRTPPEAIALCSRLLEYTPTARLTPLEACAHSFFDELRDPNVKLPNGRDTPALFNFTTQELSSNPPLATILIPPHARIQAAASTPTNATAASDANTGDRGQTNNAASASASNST

Structure (SMILES)	inhibition at 10 µM [1] [%]	EC50 [1] [nM]	EC50 (GSK3β kinase) [nM]	EC50 [2] [nM]	EC50 [3] [nM]	EC50 [4] [nM]	EC50 (IL-6) [nM]	EC50 (DYRK1A kinase) [nM]	inhibition at 10 µM [3] [%]	inhibition at 10 µM ([4]; read-out: percent inhibition at 10 μM) [%]	inhibition at 10 µM (IL-6; read-out: percent value in parentheses below EC50 >10) [%]	EC50 (DYRK1A kinase; [5]) [nM]
[2H]C([2H])([2H])c1ccc(C(=O)Nc2cc3cc(-c4cncn4C)ccc3cn2)cc1 [Compound 84, 4-(Methyl-d3)-N-(6-(1-methyl-1H-imidazol-5-yl)isoquinolin-3-yl)benzamide]	25.5	> 10000	1050	1400	494	630	1300	2				
[2H]c1c([2H])c(C(=O)Nc2cc3cc(-c4cncn4C)ccc3cn2)c([2H])c([2H])c1C [Compound 85, 4-Methyl-N-(6-(1-methyl-1H-imidazol-5-yl)isoquinolin-3-yl)benzamide-2,3,5,6-d4]		233	847	1400	487	557	1220	2				
[2H]c1c([2H])c(C([2H])([2H])[2H])c([2H])c([2H])c1C(=O)Nc1cc2cc(-c3cncn3C)ccc2cn1 [Compound 86, 4-(Methyl-d3)-N-(6-(1-methyl-1H-imidazol-5-yl)isoquinolin-3-yl) benzamide-2,3,5,6-d4]		350	1740	3040	515	556	2170	2				
[2H]C([2H])([2H])Oc1ccc(C(=O)Nc2cc3cc(-c4cncn4C)ccc3cn2)cc1 [Compound 87, 4-(Methoxy-d3)-N-(6-(1-methyl-1H-imidazol-5-yl)isoquinolin-3-yl) benzamide]		214	1450	896	489	132	1170	3				
[2H]c1c([2H])c(C(=O)Nc2cc3cc(-c4cncn4C)ccc3cn2)c([2H])c([2H])c1OC([2H])([2H])[2H] [Compound 88, 4-(Methoxy-d3)-N-(6-(1-methyl-1H-imidazol-5-yl)isoquinolin-3-yl) benzamide-2,3,5,6-d4]		179	1010	16	480	311	1200	2				
[2H]c1c([2H])c(C(=O)Nc2cc3cc(-c4cncn4C)ccc3cn2)c([2H])c([2H])c1OC [Compound 89, 4-Methoxy-N-(6-(1-methyl-1H-imidazol-5-yl)isoquinolin-3-yl)benzamide-2,3,5,6-d4]		155	533	594	480	190	1050	2				
[2H]c1c([2H])c([2H])c(/C=C/C(=O)Nc2cc3cc(-c4cnc(C)n4C)ccc3cn2)c([2H])c1[2H] [Compound 90, (E)-N-(6-(1,2-Dimethyl-1H-imidazol-5-yl)isoquinolin-3-yl)-3-(phenyl-2,3,4,5,6-d5)acrylamide]		159	388	171	312	299	606	4				
[2H]/C(C(=O)Nc1cc2cc(-c3cnc(C)n3C)ccc2cn1)=C(/[2H])c1c([2H])c([2H])c([2H])c([2H])c1[2H] [Compound 91, (E)-N-(6-(1,2-Dimethyl-1H-imidazol-5-yl)isoquinolin-3-yl)-3-(phenyl-2,3,4,5,6-d5)acrylamide-2,3-d2]		197	454	68	314	289	679	5				
[2H]C([2H])(C(=O)Nc1cc2cc(-c3cnc(C)n3C)ccc2cn1)c1ccc(F)cc1 [Compound 92, N-(6-(1,2-Dimethyl-1H-imidazol-5-yl)isoquinolin-3-yl)-2-(4-fluorophenyl) acetamide-2,2-d2]		3140	66	769	4080	2710	3180	10				
[2H]c1c([2H])c([2H])c(/C=C/C(=O)Nc2cc3cc(-c4cncn4C)ccc3cn2)c([2H])c1[2H] [Compound 93, (E)-N-(6-(1-methyl-1H-imidazol-5-yl)isoquinolin-3-yl)-3-(phenyl-2,3,4,5,6-d5)acrylamide]		67	238	259	98	145	280	2				
[2H]/C(C(=O)Nc1cc2cc(-c3cncn3C)ccc2cn1)=C(/[2H])c1c([2H])c([2H])c([2H])c([2H])c1[2H] [Compound 94, (E)-N-(6-(1-Methyl-1H-imidazol-5-yl)isoquinolin-3-yl)-3-(phenyl-2,3,4,5,6-d5)acrylamide-2,3-d2]		88	276	244	104	125	319	2				
[2H]C([2H])(C(=O)Nc1cc2cc(-c3cncn3C)ccc2cn1)c1ccc(F)cc1 [Compound 95, 2-(4-Fluorophenyl)-N-(6-(1-methyl-1H-imidazol-5-yl)isoquinolin-3-yl) acetamide-2,2-d2]		1070	38	76	766	276	339	4				
Cn1cc(-c2cc(F)c3cnc(NC(=O)[C@H]4CC[C@@H](N(C)C)CC4)cc3c2)cn1 [Compound 96, cis-4-(Dimethylamino)-N-(8-fluoro-6-(1-methyl-1H-pyrazol-4-yl)isoquinolin-3-yl)cyclohexane-1-carboxamide]	0	> 10000	5420	> 10000	> 10000	> 10000	> 10000		2.3	36	3.6	846
Cn1cc(-c2cc(F)c3cnc(NC(=O)[C@H]4CC[C@@H](N5CCOCC5)CC4)cc3c2)cn1 [Compound 97, cis-N-(8-Fluoro-6-(1-methyl-1H-pyrazol-4-yl)isoquinolin-3-yl)-4-morpholinocyclohexane-1-carboxamide]		1470	20	184	806	200	365					14
Cn1cc(-c2ccc3cnc(NC(=O)[C@H]4CC[C@H](N5CCCC5)CC4)cc3c2)nn1 [Compound 99, trans-N-(6-(1-Methyl-1H-1,2,3-triazol-4-yl)isoquinolin-3-yl)-4-(pyrrolidin-1-yl)cyclohexane-1-carboxamide]		589	8	208	1080	72	1360					4
Cn1cc(-c2ccc3cnc(NC(=O)[C@H]4CC[C@H](N5CCOCC5)CC4)cc3c2)nn1 [Compound 100, trans-N-(6-(1-Methyl-1H-1,2,3-triazol-4-yl)isoquinolin-3-yl)-4-morpholinocyclohexane-1-carboxamide]		720	11	113	1530	64	2020					3
Cc1ncc(-c2cc(F)c3cnc(NC(=O)[C@H]4CC[C@H](C(=O)N5CCN(C)CC5)CC4)cc3c2)o1 [Compound 101, trans-N-(8-fluoro-6-(2-methyloxazol-5-yl)isoquinolin-3-yl)-4-(4-methylpiperazine-1-carbonyl)cyclohexane-1-carboxamide]	6.3	> 10000	1030	5400	> 10000	3070	3590		18.8			22
CN1CCN(C(=O)[C@H]2CC[C@H](C(=O)Nc3cc4cc(-c5cnn(C)c5)cc(F)c4cn3)CC2)CC1 [Compound 102, trans-N-(8-Fluoro-6-(1-methyl-1H-pyrazol-4-yl)isoquinolin-3-yl)-4-(4-methylpiperazine-1-carbonyl)cyclohexane-1-carboxamide]		3250	434	2600	3030	2400	2920					5
